Data as given in patent publication US20240358702A1, “CYCLIC UREA KRAS INHIBITORS” (INCYTE CORPORATION, priority 2023, published 2024).

Assays:
KRAS G12D = KRAS G12D (Homo sapiens, UniProt P01116, G12D); experiment: GDP-GTP exchange assay (bodipy-GDP/GppNHp, SOS1), KRAS G12D; assay type: biochemical; conditions: KRAS_G12D exchange assay IC50; 4 h pre-incubation; value for the most potent isomer quoted
Experimental: (§1) The inhibitor potency of the exemplified compounds was determined in a fluorescence based guanine nucleotide exchange assay, which measures the exchange of bodipy-GDP (fluorescently labeled GDP) for GppNHp (Non-hydrolyzable GTP analog) to generate the active state of KRAS in the presence of SOS1 (guanine nucleotide exchange factor). Inhibitors were serially diluted in DMSO and a volume of 0.1 μL was transferred to the wells of a black low volume 384-well plate. 5 μL/well volume of bodipy-loaded KRAS G12D diluted to […] in assay buffer (25 mM Hepes pH 7.5, 50 mM NaCl, 10 mM mgCl2 and 0.01% Brij-35) was added to the plate and pre-incubated with inhibitor for 4 h at ambient temperature. Appropriate controls (enzyme with no inhibitor or with a G12D inhibitor) were included on the plate. The exchange was initiated by the addition of a 5 μL/well volume containing 1 mM GppNHp and 300 nM SOS1 in assay buffer. The 10 μL/well reaction concentration of the bodipy-loaded KRAS G12D, GppNHp, and SOS1 were 2.5 nM, 500 uM, and 150 nM, respectively. The reaction plates were incubated at ambient temperature for 2 h, a time estimated for complete GDP-GTP exchange in the absence of inhibitor. For the KRAS G12V mutant, similar guanine nucleotide exchange assays were used with 2.5 nM as final concentration for the bodipy loaded KRAS proteins and 3 h incubation after adding GppNHp-SOS1 mixture. A cyclic peptide described to selectively bind G12D mutant (Sakamoto et al., BBRC 484.3 (2017), 605-611) or internal compounds with confirmed binding were used as positive controls in the assay plates. Fluorescence intensities were measured on a PheraStar plate reader instrument (BMG Labtech) with excitation at 485 nm and emission at 520 nm.
(§2) Either GraphPad prism or Genedata Screener SmartFit was used to analyze the data. The IC50 values were derived by fitting the data to a four parameter logistic equation producing a sigmoidal dose-response curve with a variable Hill coefficient.
(§3) The symbol “t” indicates IC50≤100 nM, “††” indicates IC50>100 nM but ≤1 μM; and “†††” indicates IC50 is >1 μM but ≤5 μM, “††††” indicates IC50 is >5 μM but ≤10 μM. “NA” indicates IC50 not available.

KRAS G12V = KRAS G12V (Homo sapiens, UniProt P01116, G12V); experiment: GDP-GTP exchange assay (bodipy-GDP/GppNHp, SOS1), KRAS G12V; assay type: biochemical; conditions: KRAS_G12V exchange assay IC50, value for the most potent isomer quoted; for IC50: read-out: G12V_exchange
Experimental: as §1, §2, §3

KRAS G12V, sequence (P01116 1-188 isoform P01116-2 G12V): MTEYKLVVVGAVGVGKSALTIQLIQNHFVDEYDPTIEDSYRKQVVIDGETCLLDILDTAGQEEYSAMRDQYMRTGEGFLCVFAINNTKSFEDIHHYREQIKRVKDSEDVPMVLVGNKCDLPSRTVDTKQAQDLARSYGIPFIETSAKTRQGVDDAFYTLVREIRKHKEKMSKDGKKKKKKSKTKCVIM
KRAS G12D, sequence (P01116 1-188 isoform P01116-2 G12D): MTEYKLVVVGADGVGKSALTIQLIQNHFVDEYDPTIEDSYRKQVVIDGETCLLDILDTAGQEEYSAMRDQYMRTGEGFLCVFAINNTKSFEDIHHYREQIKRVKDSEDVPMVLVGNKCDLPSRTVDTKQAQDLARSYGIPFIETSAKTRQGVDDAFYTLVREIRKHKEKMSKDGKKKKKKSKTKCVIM

Structure (SMILES)	G12D_exchange (KRAS G12D)	G12V_exchange (KRAS G12V)	IC50 (KRAS G12V) [nM]
Cc1nc2c(F)c(-c3cccc(Cl)c3Cl)c(CCC#N)cc2c2c1cc([C@@H](C)N1CCCN(c3ccnc4sccc34)C1=O)n2[C@H]1[C@H]2CN[C@@H]1C2 (single isomer, unassigned) [Example 8]	†	†	
Cc1nc2c(F)c(-c3cccc(Cl)c3Cl)c(CCC#N)cc2c2c1cc([C@@H](C)N1CCCN(c3cncnc3)C1=O)n2[C@H]1[C@H]2CN[C@@H]1C2 (single isomer, unassigned) [Example 10]	†	†	
Cc1nc2c(F)c(-c3cccc(Cl)c3Cl)c(CCC#N)cc2c2c1cc([C@@H](C)N1CCCN(c3ccncn3)C1=O)n2[C@H]1[C@H]2CN[C@@H]1C2 (single isomer, unassigned) [Example 11]	†		100 to 1000
Cc1nc2c(F)c(-c3cccc(Cl)c3Cl)c(CCC#N)cc2c2c1cc([C@@H](C)N1CCCN(c3ccnc(C(F)F)c3)C1=O)n2[C@H]1[C@H]2CN[C@@H]1C2 (single isomer, unassigned) [Example 12]	†		100 to 1000
Cc1nc2c(F)c(-c3cccc(Cl)c3Cl)c(CCC#N)cc2c2c1cc([C@@H](C)N1CCCN(c3ccnnc3)C1=O)n2[C@H]1[C@H]2CN[C@@H]1C2 [Example 9, 3-(1-((1R,4R,5S)-2-azabicyclo[2.1.1]hexan-5-yl)-7-(2,3-dichlorophenyl)-6-fluoro-4-methyl-2-((R)-1-(2-oxo-3-(pyridazin-4-yl)tetrahydropyrimidin-1(2H)-yl)ethyl)-1H-pyrrolo[3,2-c]quinolin-8-yl)propanenitrile]	†		100 to 1000
Cc1nc2c(F)c(-c3cccc(Cl)c3Cl)c(CCC#N)cc2c2c1cc([C@@H](C)N1CCCN(c3ccccc3)C1=O)n2[C@H]1[C@H]2CN[C@@H]1C2 [Example 16, 3-(1-((1R,4R,5S)-2-azabicyclo[2.1.1]hexan-5-yl)-7-(2,3-dichlorophenyl)-6-fluoro-4-methyl-2-((R)-1-(2-oxo-3-phenyltetrahydropyrimidin-1(2H)-yl)ethyl)-1H-pyrrolo[3,2-c]quinolin-8-yl)propanenitrile]	†	†	
Cc1nc2c(F)c(-c3cccc(Cl)c3Cl)c(CCC#N)cc2c2c1cc([C@@H](C)N1CCCN(c3ccncc3)C1=O)n2[C@H]1[C@H]2CN[C@@H]1C2 [Example 17, 3-(1-((1R,4R,5S)-2-azabicyclo[2.1.1]hexan-5-yl)-7-(2,3-dichlorophenyl)-6-fluoro-4-methyl-2-((R)-1-(2-oxo-3-(pyridin-4-yl)tetrahydropyrimidin-1(2H)-yl)ethyl)-1H-pyrrolo[3,2-c]quinolin-8-yl)propanenitrile]	†		100 to 1000
Cc1nc2c(F)c(-c3cccc(Cl)c3Cl)c(CCC#N)cc2c2c1cc([C@@H](C)N1CCCN(c3ccc(F)cc3)C1=O)n2[C@H]1[C@H]2CN[C@@H]1C2 [Example 18, 3-(1-((1R,4R,5S)-2-azabicyclo[2.1.1]hexan-5-yl)-7-(2,3-dichlorophenyl)-6-fluoro-2-((R)-1-(3-(4-fluorophenyl)-2-oxotetrahydropyrimidin-1(2H)-yl)ethyl)-4-methyl-1H-pyrrolo[3,2-c]quinolin-8-yl)propanenitrile]	†	†	
Cc1nc2c(F)c(-c3cccc(Cl)c3Cl)c(CCC#N)cc2c2c1cc([C@@H](C)N1CCCN(c3ccccn3)C1=O)n2[C@H]1[C@H]2CN[C@@H]1C2 [Example 19, 3-(1-((1R,4R,5S)-2-azabicyclo[2.1.1]hexan-5-yl)-7-(2,3-dichlorophenyl)-6-fluoro-4-methyl-2-((R)-1-(2-oxo-3-(pyridin-2-yl)tetrahydropyrimidin-1(2H)-yl)ethyl)-1H-pyrrolo[3,2-c]quinolin-8-yl)propanenitrile]	†	†	
COc1ncccc1N1CCCN([C@H](C)c2cc3c(C)nc4c(F)c(-c5cccc(Cl)c5Cl)c(CCC#N)cc4c3n2[C@H]2[C@H]3CN[C@@H]2C3)C1=O [Example 20, 3-(1-((1R,4R,5S)-2-azabicyclo[2.1.1]hexan-5-yl)-7-(2,3-dichlorophenyl)-6-fluoro-2-((R)-1-(3-(2-methoxypyridin-3-yl)-2-oxotetrahydropyrimidin-1(2H)-yl)ethyl)-4-methyl-1H-pyrrolo[3,2-c]quinolin-8-yl)propanenitrile]	†		100 to 1000
Cc1nc2c(F)c(-c3cccc(Cl)c3Cl)c(CCC#N)cc2c2c1cc([C@@H](C)N1CCCN(c3ccncc3F)C1=O)n2[C@H]1[C@H]2CN[C@@H]1C2 [Example 21, 3-(1-((1R,4R,5S)-2-azabicyclo[2.1.1]hexan-5-yl)-7-(2,3-dichlorophenyl)-6-fluoro-2-((R)-1-(3-(3-fluoropyridin-4-yl)-2-oxotetrahydropyrimidin-1(2H)-yl)ethyl)-4-methyl-1H-pyrrolo[3,2-c]quinolin-8-yl)propanenitrile]	†	†	
COc1cc(N2CCCN([C@H](C)c3cc4c(C)nc5c(F)c(-c6cccc(Cl)c6Cl)c(CCC#N)cc5c4n3[C@H]3[C@H]4CN[C@@H]3C4)C2=O)ccn1 [Example 22, 3-(1-((1R,4R,5S)-2-azabicyclo[2.1.1]hexan-5-yl)-7-(2,3-dichlorophenyl)-6-fluoro-2-((R)-1-(3-(2-methoxypyridin-4-yl)-2-oxotetrahydropyrimidin-1(2H)-yl)ethyl)-4-methyl-1H-pyrrolo[3,2-c]quinolin-8-yl)propanenitrile]	†	†	
Cc1nc2c(F)c(-c3cccc(Cl)c3Cl)c(CCC#N)cc2c2c1cc([C@@H](C)N1CCCN(c3cccnc3)C1=O)n2[C@H]1[C@H]2CN[C@@H]1C2 [Example 23, 3-(1-((1R,4R,5S)-2-azabicyclo[2.1.1]hexan-5-yl)-7-(2,3-dichlorophenyl)-6-fluoro-4-methyl-2-((R)-1-(2-oxo-3-(pyridin-3-yl)tetrahydropyrimidin-1(2H)-yl)ethyl)-1H-pyrrolo[3,2-c]quinolin-8-yl)propanenitrile]	†	†	
Cc1nc2c(F)c(-c3cccc(Cl)c3Cl)c(CCC#N)cc2c2c1cc([C@@H](C)N1CCCN(c3cccc(C4(O)COC4)c3)C1=O)n2[C@H]1[C@H]2CN[C@@H]1C2 [Example 24, 3-(1-((1R,4R,5S)-2-azabicyclo[2.1.1]hexan-5-yl)-7-(2,3-dichlorophenyl)-6-fluoro-2-((R)-1-(3-(3-(3-hydroxyoxetan-3-yl)phenyl)-2-oxotetrahydropyrimidin-1(2H)-yl)ethyl)-4-methyl-1H-pyrrolo[3,2-c]quinolin-8-yl)propanenitrile]	†	†	
Cc1nc2c(F)c(-c3cccc(Cl)c3Cl)c(CCC#N)cc2c2c1cc([C@@H](C)N1CCCN(c3ccnnc3)C1=O)n2[C@H]1[C@H]2CN[C@@H]1C2 [Example 35, 3-(1-((1R,4R,5S)-2-azabicyclo[2.1.1]hexan-5-yl)-7-(2,3-dichlorophenyl)-6-fluoro-4-methyl-2-((R)-1-(2-oxo-3-(pyridazin-4-yl)tetrahydropyrimidin-1(2H)-yl)ethyl)-1H-pyrrolo[3,2-c]quinolin-8-yl)propanenitrile]	†		
